# Assay results as given in US9504673B2, “Agent for the prophylaxis and treatment of highly pathogenic infectious diseases” (priority 2009, dated 2016).
# Where “and” joins values, the source holds several entries; their conditions need not be identical. Equal values may be shown once. Read-outs that look alike come from different tables or passages of the source.
# Experiments:
# [1] = test system: severe acute respiratory syndrome virus; parameters: species or system Syrian hamsters; settings: hamster, in vivo, po
# [2] = test system: influenza virus strain A/chicken/Kurgan/Russia/02/05 (H5N1); parameters: species or system white mice; settings: mouse, in vivo, po
# [3] = Acute toxicity study of glutaryl histamine; settings: male, nonlinear white (outbred), mouse, in vivo, po
smiles,measurement,setting,value
O=C(O)CCCC(=O)NCCc1c[nH]cn1 [glutaryl histamine],"Therapeutic efficacy, %",[1]; 5 mg/kg,20.0% and 30.0%
same,Virus yield in the lungs at peak of infection (on day 4) 1 g PFU/ml,[1]; 5 mg/kg,7.5 1 g PFU/ml and 7.0 1 g PFU/ml
same,"Virus yield in the lungs at peak of infection (on day 4) Δ, 1 g",[1]; 5 mg/kg,0.8 1 g and 0.9 1 g
same,"Therapeutic efficacy, %",[1]; 15 mg/kg,40%
same,Virus yield in the lungs at peak of infection (on day 4) 1 g PFU/ml,[1]; 15 mg/kg,3.8 1 g PFU/ml
same,"Virus yield in the lungs at peak of infection (on day 4) Δ, 1 g",[1]; 15 mg/kg,2.4 1 g
same,Death rate,[2]; 5 mg/kg,12/20
same,Deaths,[2]; 5 mg/kg,11
same,Increase of mean lifetime Δ,[2]; 5 mg/kg,2.7 days and 1.8 days
same,Mean lifetime of animals in the group,[2]; 5 mg/kg,10.9 days and 10.0 days
same,"Protective efficacy against death, %",[2]; 5 mg/kg,45% and 40%
same,Death rate,[2]; 15 mg/kg,12/20 and 13/20
same,Increase of mean lifetime Δ,[2]; 15 mg/kg,2.4 days and 2.0 days
same,Mean lifetime of animals in the group,[2]; 15 mg/kg,11.0 days and 8.7 days
same,"Protective efficacy against death, %",[2]; 15 mg/kg,40% and 35%
same,LD50,[3],> 10000 mg/kg
"CCOC(=O)c1c(CSc2ccccc2)n(C)c2cc(Br)c(O)c(CN(C)C)c12 [Arbidol ®, reference compound]",Death rate,[2]; 135 mg/kg,15/20 and 18/20
same,Increase of mean lifetime Δ,[2]; 135 mg/kg,1.4 days and 1.1 days
same,Mean lifetime of animals in the group,[2]; 135 mg/kg,8.0 days and 7.2 days
